Results from paper PMC10176470, “Engaging a Non-catalytic Cysteine Residue Drives Potent and Selective Inhibition of Caspase-6” (Journal of the American Chemical Society, 2023).
Read-outs that look alike come from different tables or passages of the source.

How the values were obtained:
Type in all cases: cell-based
[1] = target: T1, proteins of HEK293T cells transiently overexpressing caspase-6 (Homo sapiens, UniProt Q92945); conditions: protein KHSRP (Q92945)
T1 sequence (Q92945 1-711): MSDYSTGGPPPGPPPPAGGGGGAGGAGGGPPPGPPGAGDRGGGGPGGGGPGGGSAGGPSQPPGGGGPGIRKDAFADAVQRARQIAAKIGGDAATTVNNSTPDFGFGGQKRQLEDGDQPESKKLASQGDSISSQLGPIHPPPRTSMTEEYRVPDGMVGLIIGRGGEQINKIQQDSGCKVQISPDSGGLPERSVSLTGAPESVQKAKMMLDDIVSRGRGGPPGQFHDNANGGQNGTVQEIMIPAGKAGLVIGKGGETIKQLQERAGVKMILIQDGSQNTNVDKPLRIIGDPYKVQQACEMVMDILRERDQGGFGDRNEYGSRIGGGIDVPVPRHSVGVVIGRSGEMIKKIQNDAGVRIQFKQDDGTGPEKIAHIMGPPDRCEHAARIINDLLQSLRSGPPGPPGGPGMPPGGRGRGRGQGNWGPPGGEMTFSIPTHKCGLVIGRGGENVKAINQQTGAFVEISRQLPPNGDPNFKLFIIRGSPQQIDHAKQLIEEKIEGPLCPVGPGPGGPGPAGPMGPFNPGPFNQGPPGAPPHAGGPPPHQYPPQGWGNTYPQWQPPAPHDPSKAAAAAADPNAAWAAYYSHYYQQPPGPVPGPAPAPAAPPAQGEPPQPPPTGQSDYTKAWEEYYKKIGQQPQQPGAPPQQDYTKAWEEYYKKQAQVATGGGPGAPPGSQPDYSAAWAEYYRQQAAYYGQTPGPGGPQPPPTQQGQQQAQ

[2] = target: T2, proteins of HEK293T cells transiently overexpressing caspase-6 (Homo sapiens, UniProt P54136); conditions: exp_ref Probe; protein RARS (P54136); analysis C6
T2 sequence (P54136 1-660): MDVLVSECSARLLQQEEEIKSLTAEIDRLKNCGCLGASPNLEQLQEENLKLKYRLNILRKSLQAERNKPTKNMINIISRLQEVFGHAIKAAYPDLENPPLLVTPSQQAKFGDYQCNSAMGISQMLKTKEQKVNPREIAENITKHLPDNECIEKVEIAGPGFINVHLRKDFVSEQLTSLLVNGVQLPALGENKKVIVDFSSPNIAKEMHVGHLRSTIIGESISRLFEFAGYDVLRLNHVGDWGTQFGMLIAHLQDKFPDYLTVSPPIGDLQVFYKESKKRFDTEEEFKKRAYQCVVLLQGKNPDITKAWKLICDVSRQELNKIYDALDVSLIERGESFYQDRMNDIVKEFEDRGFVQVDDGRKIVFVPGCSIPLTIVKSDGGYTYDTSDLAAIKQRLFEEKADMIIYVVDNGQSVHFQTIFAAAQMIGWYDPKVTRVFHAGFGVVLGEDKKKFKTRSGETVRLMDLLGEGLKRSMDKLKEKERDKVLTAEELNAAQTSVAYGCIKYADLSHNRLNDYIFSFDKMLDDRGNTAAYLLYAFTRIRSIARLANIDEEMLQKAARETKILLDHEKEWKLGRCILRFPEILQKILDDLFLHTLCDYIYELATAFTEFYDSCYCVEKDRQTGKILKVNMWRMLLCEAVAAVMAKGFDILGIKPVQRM

[3] = target: T3, proteins of HEK293T cells transiently overexpressing caspase-6 (Homo sapiens, UniProt P00505)
T3 sequence (P00505 30-430): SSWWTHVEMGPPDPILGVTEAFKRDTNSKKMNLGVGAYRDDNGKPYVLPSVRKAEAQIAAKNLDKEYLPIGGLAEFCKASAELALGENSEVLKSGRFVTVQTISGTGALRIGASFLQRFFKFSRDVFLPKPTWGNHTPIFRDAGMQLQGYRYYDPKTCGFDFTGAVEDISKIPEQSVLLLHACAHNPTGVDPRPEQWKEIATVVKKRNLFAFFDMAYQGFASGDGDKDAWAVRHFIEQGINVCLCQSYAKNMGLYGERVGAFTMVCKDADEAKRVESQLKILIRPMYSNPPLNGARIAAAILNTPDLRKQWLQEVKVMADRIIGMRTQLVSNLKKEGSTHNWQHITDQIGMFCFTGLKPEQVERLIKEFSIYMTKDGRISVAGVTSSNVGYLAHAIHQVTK

[4] = target: proteins of HEK293T cells transiently overexpressing caspase-6 (Homo sapiens, UniProt P13010); conditions: protein XRCC5 (P13010)
[5] = target: proteins of HEK293T cells transiently overexpressing caspase-6 (Homo sapiens, UniProt P40939); conditions: exp_ref Probe; protein HADHA (P40939); analysis C6
[6] = target: proteins of HEK293T cells transiently overexpressing caspase-6 (Homo sapiens, UniProt P62701); conditions: exp_ref Probe; protein RPS4X (P62701); analysis C6
[7] = target: proteins of HEK293T cells transiently overexpressing caspase-6 (Homo sapiens, UniProt P63104); conditions: exp_ref Probe; protein YWHAZ (P63104); analysis C6
[8] = target: proteins of HEK293T cells transiently overexpressing caspase-6 (Homo sapiens, UniProt Q00765); conditions: protein REEP5 (Q00765)
[9] = target: proteins of HEK293T cells transiently overexpressing caspase-6 (Homo sapiens, UniProt P35527); conditions: Probe; protein KRT9 P35527
[10] = target: proteins of HEK293T cells transiently overexpressing caspase-6 (Homo sapiens, UniProt P09211); conditions: exp_ref Probe; protein GSTP1 (P09211); analysis C6
[11] = target: proteins of HEK293T cells transiently overexpressing caspase-6 (Homo sapiens, UniProt Q9Y224); conditions: Probe; protein C14orf166 Q9Y224
Sequence of proteins of HEK293T cells transiently overexpressing caspase-6 (Homo sapiens, UniProt Q9Y224) (Q9Y224 whole entry): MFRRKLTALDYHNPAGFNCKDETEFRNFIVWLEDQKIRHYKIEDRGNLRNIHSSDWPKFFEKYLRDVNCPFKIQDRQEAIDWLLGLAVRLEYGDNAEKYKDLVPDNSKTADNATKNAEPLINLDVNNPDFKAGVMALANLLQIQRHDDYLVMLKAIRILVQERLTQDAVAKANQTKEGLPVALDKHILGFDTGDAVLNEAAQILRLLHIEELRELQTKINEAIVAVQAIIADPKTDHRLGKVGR

Sequence of proteins of HEK293T cells transiently overexpressing caspase-6 (Homo sapiens, UniProt P13010) (P13010 whole entry): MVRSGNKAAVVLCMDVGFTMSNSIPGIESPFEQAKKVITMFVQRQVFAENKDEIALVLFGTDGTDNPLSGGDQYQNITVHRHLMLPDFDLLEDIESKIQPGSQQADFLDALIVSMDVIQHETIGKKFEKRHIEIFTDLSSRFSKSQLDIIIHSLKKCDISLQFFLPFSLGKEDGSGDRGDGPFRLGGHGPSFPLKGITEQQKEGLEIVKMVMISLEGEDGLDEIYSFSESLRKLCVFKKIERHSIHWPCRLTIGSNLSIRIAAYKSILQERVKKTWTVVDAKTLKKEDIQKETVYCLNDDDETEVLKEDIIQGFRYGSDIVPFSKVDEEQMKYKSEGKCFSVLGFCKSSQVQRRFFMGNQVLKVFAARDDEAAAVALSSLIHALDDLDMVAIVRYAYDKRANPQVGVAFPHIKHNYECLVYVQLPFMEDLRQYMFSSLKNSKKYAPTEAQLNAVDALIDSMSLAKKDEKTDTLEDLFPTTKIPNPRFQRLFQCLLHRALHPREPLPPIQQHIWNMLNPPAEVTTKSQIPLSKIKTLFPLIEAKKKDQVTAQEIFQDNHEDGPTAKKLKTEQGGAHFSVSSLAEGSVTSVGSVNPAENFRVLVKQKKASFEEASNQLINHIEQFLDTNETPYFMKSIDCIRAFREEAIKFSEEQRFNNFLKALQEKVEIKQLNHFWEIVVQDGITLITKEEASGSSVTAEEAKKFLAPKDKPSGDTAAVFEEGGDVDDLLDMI
Sequence of proteins of HEK293T cells transiently overexpressing caspase-6 (Homo sapiens, UniProt Q00765) (Q00765 whole entry): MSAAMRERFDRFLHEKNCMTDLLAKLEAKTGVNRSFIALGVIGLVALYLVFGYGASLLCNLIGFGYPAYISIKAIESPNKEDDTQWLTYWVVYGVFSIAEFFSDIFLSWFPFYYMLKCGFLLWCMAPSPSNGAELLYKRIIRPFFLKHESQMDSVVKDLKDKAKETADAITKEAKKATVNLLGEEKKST
Sequence of proteins of HEK293T cells transiently overexpressing caspase-6 (Homo sapiens, UniProt P63104) (P63104 whole entry): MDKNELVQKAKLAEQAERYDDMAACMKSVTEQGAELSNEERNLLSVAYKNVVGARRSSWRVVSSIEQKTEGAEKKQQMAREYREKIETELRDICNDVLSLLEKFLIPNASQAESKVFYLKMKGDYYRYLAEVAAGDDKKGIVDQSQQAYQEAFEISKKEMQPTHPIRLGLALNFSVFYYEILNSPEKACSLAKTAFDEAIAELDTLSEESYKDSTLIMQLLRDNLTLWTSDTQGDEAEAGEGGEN
Sequence of proteins of HEK293T cells transiently overexpressing caspase-6 (Homo sapiens, UniProt P35527) (P35527 whole entry): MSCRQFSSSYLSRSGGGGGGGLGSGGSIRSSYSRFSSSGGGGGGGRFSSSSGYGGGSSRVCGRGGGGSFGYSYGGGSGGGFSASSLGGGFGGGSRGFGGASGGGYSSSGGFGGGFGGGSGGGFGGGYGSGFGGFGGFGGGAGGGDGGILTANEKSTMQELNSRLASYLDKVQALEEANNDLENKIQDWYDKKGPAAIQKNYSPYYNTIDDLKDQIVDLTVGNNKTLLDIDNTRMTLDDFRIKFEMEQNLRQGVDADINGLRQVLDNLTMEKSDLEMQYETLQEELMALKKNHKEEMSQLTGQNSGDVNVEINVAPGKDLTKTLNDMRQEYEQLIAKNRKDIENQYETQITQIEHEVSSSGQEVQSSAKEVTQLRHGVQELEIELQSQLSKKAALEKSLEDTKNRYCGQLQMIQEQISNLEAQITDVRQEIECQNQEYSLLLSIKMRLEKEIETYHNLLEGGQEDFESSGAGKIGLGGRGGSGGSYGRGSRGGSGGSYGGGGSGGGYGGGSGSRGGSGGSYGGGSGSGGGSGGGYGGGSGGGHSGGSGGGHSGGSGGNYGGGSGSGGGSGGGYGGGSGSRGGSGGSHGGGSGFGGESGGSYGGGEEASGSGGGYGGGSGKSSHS
Sequence of proteins of HEK293T cells transiently overexpressing caspase-6 (Homo sapiens, UniProt P40939) (P40939 37-763): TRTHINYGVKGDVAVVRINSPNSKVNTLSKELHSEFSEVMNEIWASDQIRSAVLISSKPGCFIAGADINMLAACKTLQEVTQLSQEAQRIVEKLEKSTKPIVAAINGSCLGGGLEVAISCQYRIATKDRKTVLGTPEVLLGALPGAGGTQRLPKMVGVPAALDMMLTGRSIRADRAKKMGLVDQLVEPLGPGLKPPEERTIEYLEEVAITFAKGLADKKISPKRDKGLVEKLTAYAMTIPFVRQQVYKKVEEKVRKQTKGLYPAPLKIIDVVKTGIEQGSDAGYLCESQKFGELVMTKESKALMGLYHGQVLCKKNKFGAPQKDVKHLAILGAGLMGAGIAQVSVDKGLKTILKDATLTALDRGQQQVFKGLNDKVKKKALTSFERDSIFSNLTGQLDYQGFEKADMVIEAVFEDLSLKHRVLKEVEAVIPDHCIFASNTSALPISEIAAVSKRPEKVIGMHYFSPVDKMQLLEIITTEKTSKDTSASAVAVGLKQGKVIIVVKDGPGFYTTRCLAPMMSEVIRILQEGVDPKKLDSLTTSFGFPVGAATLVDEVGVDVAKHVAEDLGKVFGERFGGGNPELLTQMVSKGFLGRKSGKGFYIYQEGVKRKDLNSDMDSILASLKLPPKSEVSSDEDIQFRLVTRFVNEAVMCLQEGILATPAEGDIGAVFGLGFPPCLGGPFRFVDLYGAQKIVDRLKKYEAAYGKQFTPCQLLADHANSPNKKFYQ
Sequence of proteins of HEK293T cells transiently overexpressing caspase-6 (Homo sapiens, UniProt P09211) (P09211 whole entry): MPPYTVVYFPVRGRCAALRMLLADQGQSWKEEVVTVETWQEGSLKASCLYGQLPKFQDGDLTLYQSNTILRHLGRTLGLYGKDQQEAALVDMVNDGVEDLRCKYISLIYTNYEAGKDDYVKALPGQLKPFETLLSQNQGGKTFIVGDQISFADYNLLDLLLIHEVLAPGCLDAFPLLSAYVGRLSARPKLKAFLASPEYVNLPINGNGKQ

C#CCOc1ccc([C@@H]2C[C@@H](C(=O)Nc3ccc(OC(F)(F)F)cc3)CN(S(=O)(=O)C=C)C2)cc1 (relative stereo) [13-t]
enrich.exp.med ([1]; exp_ref Probe, analysis C6): 0.3732
enrich.exp.med.lin [1]: 1.295
enrich.exp.med.log2 [1]: 0.3732
enrich.exp.med [2]: 0.9191
enrich.exp.med ([3]; Probe, protein GOT2 P00505): -0.8861
enrich.exp.med.lin ([3]; protein GOT2 (P00505)): 0.5411
enrich.exp.med.log2 ([3]; protein GOT2 (P00505)): -0.8861
enrich.exp.med ([4]; exp_ref Probe, analysis C6): 0.8127
enrich.exp.med.lin [4]: 1.757
enrich.exp.med.log2 [4]: 0.8127
enrich.exp.med [5]: 0.4567
enrich.exp.med [6]: 0.8885
enrich.exp.med [7]: 0.8069
enrich.exp.med.lin [8]: 12.9915
enrich.exp.med.log2 [8]: 3.6995
enrich.exp.med.lin ([8]; Expt Probe, analysis C6): 12.9915
enrich.exp.med.log2 ([8]; Expt Probe, analysis C6): 3.6995
enrich.exp.med ([8]; exp_ref Probe, analysis C6): 3.6995
enrich.exp.med [9]: -6.8322
enrich.exp.med [10]: 0.03311
enrich.exp.med [11]: -1.579
